For 45 compounds, AC50, IC50 and EC50 results are on record in ChEMBL document CHEMBL1201862, “PubChem BioAssay data set” (2004).

Assay [1] addresses T1, Cytochrome P450 1A2 (Homo sapiens, UniProt P05177).
T1 sequence (P05177 whole entry): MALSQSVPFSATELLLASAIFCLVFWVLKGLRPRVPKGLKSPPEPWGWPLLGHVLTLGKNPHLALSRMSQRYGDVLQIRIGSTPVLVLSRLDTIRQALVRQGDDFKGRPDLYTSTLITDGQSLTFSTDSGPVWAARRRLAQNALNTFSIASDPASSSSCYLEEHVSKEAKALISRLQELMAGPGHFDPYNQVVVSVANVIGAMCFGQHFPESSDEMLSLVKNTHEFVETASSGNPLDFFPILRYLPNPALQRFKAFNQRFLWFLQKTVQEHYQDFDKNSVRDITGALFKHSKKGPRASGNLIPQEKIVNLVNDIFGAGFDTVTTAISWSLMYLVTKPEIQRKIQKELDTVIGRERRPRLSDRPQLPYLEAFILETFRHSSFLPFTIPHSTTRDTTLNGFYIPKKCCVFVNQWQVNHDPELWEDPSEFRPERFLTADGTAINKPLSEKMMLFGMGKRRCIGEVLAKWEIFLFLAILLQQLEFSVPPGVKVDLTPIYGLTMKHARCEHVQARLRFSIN

The target of assay [2] is T2, Rac GTPase-activating protein 1 (Homo sapiens, UniProt Q9H0H5).
T2 sequence (Q9H0H5 whole entry): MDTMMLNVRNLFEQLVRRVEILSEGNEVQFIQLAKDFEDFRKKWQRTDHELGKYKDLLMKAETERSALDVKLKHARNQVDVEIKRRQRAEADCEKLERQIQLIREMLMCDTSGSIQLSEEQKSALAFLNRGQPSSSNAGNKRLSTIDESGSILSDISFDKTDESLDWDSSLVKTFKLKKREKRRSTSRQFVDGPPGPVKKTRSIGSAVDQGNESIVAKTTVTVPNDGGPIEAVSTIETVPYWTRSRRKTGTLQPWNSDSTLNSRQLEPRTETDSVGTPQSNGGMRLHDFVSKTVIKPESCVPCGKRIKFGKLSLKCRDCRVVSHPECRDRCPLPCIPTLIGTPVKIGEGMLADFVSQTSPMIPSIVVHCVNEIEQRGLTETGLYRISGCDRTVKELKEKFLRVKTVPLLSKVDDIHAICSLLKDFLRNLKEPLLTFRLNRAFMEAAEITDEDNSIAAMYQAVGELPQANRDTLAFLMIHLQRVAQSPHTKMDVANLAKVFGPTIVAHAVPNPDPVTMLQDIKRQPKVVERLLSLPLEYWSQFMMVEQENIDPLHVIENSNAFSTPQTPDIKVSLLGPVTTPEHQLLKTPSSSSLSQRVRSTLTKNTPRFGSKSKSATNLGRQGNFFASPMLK
As to the kind of experiment: blockers of MgcRacGAP-driven Rac1 GTP hydrolysis – biochemical, ADP Hunter fluorescence, primary and confirmatory, confirmation (AID 624330). The format is functional.

The target in assay [3] is T3, Streptokinase A (Streptococcus pyogenes serotype M1, UniProt P10520).
T3 sequence (P10520 whole entry): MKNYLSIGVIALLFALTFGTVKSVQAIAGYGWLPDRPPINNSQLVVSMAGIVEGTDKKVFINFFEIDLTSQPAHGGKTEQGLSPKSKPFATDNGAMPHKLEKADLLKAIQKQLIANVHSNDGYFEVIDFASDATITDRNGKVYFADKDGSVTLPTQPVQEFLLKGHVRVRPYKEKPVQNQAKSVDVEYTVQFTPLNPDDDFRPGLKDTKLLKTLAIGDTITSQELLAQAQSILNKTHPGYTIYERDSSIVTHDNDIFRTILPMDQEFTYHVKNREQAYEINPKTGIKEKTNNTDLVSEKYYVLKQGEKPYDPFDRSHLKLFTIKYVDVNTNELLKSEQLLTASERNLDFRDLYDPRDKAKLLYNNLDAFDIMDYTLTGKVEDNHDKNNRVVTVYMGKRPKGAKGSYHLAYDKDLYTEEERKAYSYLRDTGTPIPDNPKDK
As to the kind of experiment: viability-normalized secreted streptokinase activity reduction – plasminogen activation absorbance, OD405, dose response (AID 1914).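 Also: secreted streptokinase activity via plasminogen activation per viability signal from cell pellet.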 The format is functional, Streptococcus pyogenes M1 GAS.

For assay [4], the system named is Streptococcus. As to the kind of experiment: GAS UMAA2166 growth inhibition – luminescence, BacTiterGlo, counter-screen for streptokinase expression inhibitor project, dose response (AID 1915).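 Also: potency for reduction of bacterial viability or growth.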 The format is functional, organism-based. (In general: Counterscreens check selectivity or assay interference.)
Assay [5] has as its system Streptococcus sp. 'group A'. As to the kind of experiment: Streptococcus pyogenes SK(-)GAS viability under kanamycin – luminescence, BacTiterGlo, confirmation, counter-screen for streptokinase expression inhibitor project, dose response (AID 1900). The format is functional, organism-based.
Assay [6] can be described thus: NIH3T3 cell viability loss – ATP luminescence, mouse fibroblasts, counter-screen, dose response (AID 2010).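 Also: cells exposed to compound for about 90 hours before reading.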 It counts as functional, cell-based.
Assay [7] can be described thus: Trypanosoma cruzi growth suppression in host cells – NIH3T3 host cells, beta-gal luminescence, confirmation (AID 2044).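 Also: intracellular parasites grown in NIH/3T3 mouse fibroblasts as host cells; luminescent beta-galactosidase reporter signal from transgenic T. cruzi replicating inside host cells; inhibitors lower the luminescence signal.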 It counts as functional, cell-based.

“And” between values parts separate entries of the source, which are not always exact repeats. Equal entries are not always repeated. The source made the active and inactive calls. Rule as the data show it, for most assays here: actives have a measured EC50 and inactives only a lower limit. Where only a bound is given, the exact number is not on record here.

A word on the AC50: it is the concentration at which the activity in the assay is half-maximal. Broadly, the IC50 is the concentration needed to halve the response being measured. By EC50 is commonly meant the concentration giving half of the maximal effect.
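For AC50 in this document: PubChem cytochrome P450 panel assay, CYP1A2 panel member.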

In the case of `C[C@H]1C=C2C=C[C@H](C)[C@H](CC[C@@H]3C[C@@H](O)CC(=O)O3)[C@H]2[C@@H](OC(=O)[C@@H](C)CCO)C1`, the AC50 in assay [1] is 31.6 µM (inconclusive).

Take `COc1cc(/C=N/NC(=O)c2nnn(-c3nonc3N)c2C(C)C)ccc1O`: the IC50 in assay [2] is 31 µM (active).

Consider `CC(C)(C)OC(=O)NCCCC[C@H](NC(=O)c1[nH]cnc1C(=O)Nc1ccc(Cl)cc1)C(=O)OC(C)(C)C`, for which the figures for the EC50 in assay [3], in assay [4] and in assay [5] were > 150 µM (not active), 8.04 µM (active) and 3.64 µM (active), respectively.

With `CC(C)c1ccc(/C=N/n2c(S)nnc2-c2ccccc2)cc1`, the EC50 was > 150 µM (not active) in assay [3], > 150 µM (not active) in assay [4] and 18.3 µM (active) in assay [5].

For `COc1ccc(NC(=O)CN(C)C(=O)/C=C/c2cn(-c3ccccc3)nc2-c2ccc(F)cc2)cc1`, the EC50 was 53.8 µM (inconclusive) in assay [3], 68.1 µM (active) in assay [4] and 26.5 µM (active) in assay [5].

For `CC(CCN1CCN(CCO)CC1)c1ccccc1` (stereo unspecified), in assay [2], the IC50 was 153 µM (active).

As to `CCOC(=O)c1[nH]c2ccccc2c1N=C(S)Nc1ccccc1C`, the IC50 in assay [2] was 65.9 µM (active).

Regarding `Brc1ccc(OCc2ccccc2)c(CNCc2ccncc2)c1`, the EC50 in assay [6] was > 60 µM (not active); in assay [7], 0.802 µM (active).

With `CCN1CCN(c2ccc(S(=O)(=O)N3CCOCC3)cc2NC(=O)COc2ccc(F)cc2Cl)CC1`, the EC50 was 19.2 µM (active) in assay [6] and 1.06 µM (active) in assay [7].

`CC(C)c1ccc(/C=N/N2CCCCC2)cc1`: in assay [2], the IC50 is 220 µM (active).

Turning to `O=C(CCC1CCCN(Cc2ccncc2)C1)NCc1ccc(F)c(F)c1` (stereo unspecified), the EC50 in assay [6] was > 60 µM (not active); in assay [7], 0.661 µM (active).

Regarding `CC(C)Sc1cc(N2CCCC2)nc(-c2ccccc2)n1`, the EC50 in assay [3] is 11.2 µM (active); in assay [4], > 150 µM (not active); in assay [5], 12.3 µM (active).

In the case of `COc1cccc(/C=N/NC(=O)c2cccc([N+](=O)[O-])c2)c1OS(=O)(=O)c1ccc(C)cc1`, the AC50 in assay [1] is 6.31 µM (inconclusive).

With `CN1CCC(N(C)CC(=O)Nc2ccc3c(c2)OC(F)(F)O3)CC1`, the IC50 in assay [2] was 65.9 µM (active).

`COc1c(Cl)cc(Cl)cc1C(=O)Nc1ccc(NC(=O)c2cccs2)cc1`: the EC50 in assay [6] was > 60 µM (not active); in assay [7] it was 1.95 µM (active).

Take `COc1ccc(NC(=O)c2ccc(NC(=O)CN3CCN(c4ccc(O)cc4)CC3)cc2)cc1`: the IC50 in assay [2] was 63 µM (active).

`CC(=O)CCCCn1c(=O)c2c(ncn2C)n(C)c1=O` [PENTOXIFYLLINE]: in assay [1], the AC50 was 12.6 µM (inconclusive).

Consider `CCCN(CCC)[C@H]1CCc2c(F)ccc(O)c2C1`, for which the concentration at half-maximal activity (AC50) in assay [1] was 12.6 µM (inconclusive) and 25.1 µM (inconclusive).

In the case of `O=C(Nc1ccc(-c2csc(Nc3ccc(Cl)cc3)n2)cc1)c1cccc(C(F)(F)F)c1`, the values for the EC50 in assay [6] and in assay [7] were 7.75 µM (active) and 1.76 µM (active), respectively.

In the case of `CCC/C=C(\CCC)C(NS(=O)(=O)c1ccc(Cl)cc1)c1ccccc1` (stereo unspecified), the AC50 in assay [1] was 12.6 µM (inconclusive).

Consider `CSc1ccc(/C=C2\CCn3c2nc2cc(C(=O)O)ccc2c3=O)cc1`, for which the EC50 in assay [3] is > 150 µM (not active); in assay [4] it was > 150 µM (not active); in assay [5], 23.1 µM (active).

In the case of `Cc1ccc(S(=O)(=O)N2CCC(C(=O)Nc3ccc(S(=O)(=O)N4CCCC4)cc3)CC2)cc1C`, the EC50 in assay [6] was > 30 µM (not active); in assay [7], 0.795 µM (active).

As to `CCc1ccc2c(c1)C(c1ccc(N3CCOCC3)cc1)=NNC(c1ccncc1)=N2`, the EC50 in assay [6] is > 30 µM (not active); in assay [7] it was 1.5 µM (active).

Consider `O=C(NCCCN1CCN(CCCNC(=O)c2cccc([N+](=O)[O-])c2)CC1)c1cccc([N+](=O)[O-])c1`, for which the figures for the half-maximal effective concentration (EC50) in assay [6] and in assay [7] were > 30 µM (not active) and 1.11 µM (active), respectively.

As for `O=C(Nc1ccccc1N1CCCC1)c1ccc2c(c1)OCO2`, the half-maximal effective concentration (EC50) in assay [3], in assay [4] and in assay [5] was > 150 µM (not active) each time.

`NS(=O)(=O)c1ccc(CCNCC(=O)N2CCC(Cc3ccccc3)CC2)cc1`: in assay [2], the IC50 was 283 µM (active).

On to `C[C@@H]1C[C@H](OC(=O)c2ccccc2O)CC(C)(C)C1`, for which the half-maximal activity concentration (AC50) in assay [1] was 12.6 µM (inconclusive).

As for `CCN1C(=O)c2ccc(C(=O)Nc3ccc(O)cc3C)cc2C1=O`, the IC50 in assay [2] was 108 µM (active).

On to `CCOC(=O)C1(CCOc2ccccc2)CCN(Cc2cccc3nonc23)CC1`, for which the EC50 in assay [6] was > 60 µM (not active); in assay [7], 1.49 µM (active).

In the case of `CC(C)/C=C1\CC/C(=C\c2cccnc2)C1=O`, the EC50 in assay [6] was > 60 µM (not active); in assay [7], 1.14 µM (active).

For `O=C(CSc1nc2nncc-2c(O)n1-c1ccc(Cl)c(Cl)c1)NCc1ccccc1Cl`, the EC50 in assay [6] was > 60 µM (inconclusive); in assay [7], 2.43 µM (active).

As for `COc1c(-c2ccc(O)c(O)c2)oc2cc(O)cc(O)c2c1=O` [3-O-METHYLQUERCETIN], the IC50 in assay [2] is 30.3 µM (active).

As to `Fc1ccc(N2CCN(Cc3c[nH]c4ccccc34)CC2)cc1`, the EC50 was > 60 µM (not active) in assay [6] and 0.69 µM (active) in assay [7].

Take `Cc1onc(-c2ccccc2Cl)c1C(=O)O/N=C(\N)c1ccccc1`: the EC50 in assay [6] is > 60 µM (not active); in assay [7], 2.34 µM (active).

As for `CCCCc1sc(-c2c(C#N)c(N)nc3c2CCCCC3)cc1[N+](=O)[O-]`, the figures for the EC50 in assay [6] and in assay [7] were > 60 µM (not active) and 1.98 µM (active), respectively.

With `Cc1ccc(NP(=O)(c2ccc(N(C)C)cc2NC(=O)c2cccs2)N2CCOCC2)cc1` (stereo unspecified), the EC50 in assay [6] is > 60 µM (not active); in assay [7], 1.49 µM (active).

Regarding `O=C1CCc2cc(OCCCCc3nnnn3C3CCCCC3)ccc2N1` [CILOSTAZOL], in assay [1], the AC50 was 39.8 µM (inconclusive).

Turning to `COc1ccc(CN2CCN(Cc3ccc4ccccc4c3)CC2)cc1OC`, the IC50 in assay [2] is 76.4 µM (active).

Take `N#CCCN1CCN(CCC#N)c2ccccc21`: the IC50 in assay [2] was 16.1 µM (active).

On to `O=C(NC1CCCC1)C(c1ccccc1)N(Cc1cccnc1)C(=O)Cc1cccs1` (stereo unspecified), for which the EC50 in assay [6] was > 60 µM (not active); in assay [7], 1.45 µM (active).

As to `Nc1ccc(OCc2ccco2)cc1`, in assay [2], the IC50 was 49.8 µM (active).

Consider `CC(=O)Nc1ccc(OC(=O)c2cc3ccccc3oc2=O)cc1`, for which the IC50 in assay [2] is 23.2 µM (active).

Turning to `COc1cccc(C(=O)C2CCCN(Cc3ccc(OC)c(Cn4cncn4)c3)C2)c1` (stereo unspecified), the EC50 is > 60 µM (not active) in assay [6] and 0.398 µM (active) in assay [7].

For `Cc1ccc(NC(=O)COc2ccc(CCO)cc2-n2nc3ccccc3n2)cc1C`, the EC50 in assay [6] is > 60 µM (inconclusive); in assay [7], 1.61 µM (active).

For the compound `COc1ccc(CCC(=O)N2CCN(C3CCCCC3)CC2)cc1`, the results for the EC50 in assay [6] and in assay [7] were > 60 µM (not active) and 1.53 µM (active), respectively.
